Results as given in patent publication US20210317505A1, “IMPROVED DETECTION OF ANTICOAGULANTS IN BODY FLUIDS” (DOASENSE GmbH, priority 2017, published 2021).
Values joined by “and” are separate entries in the source; they are usually repeats but may differ in a detail not shown here. Equal values may be shown once. Read-outs that look alike come from different tables or passages of the source.

Biological target: factor Xa (Homo sapiens, UniProt P00742)
Conditions: for difference in reflectance units for the minimum and maximum concentration: 0 ng/mL vs. 1500 ng/mL, native urine; for intensity, mean, Laura Smart No. 1 / intensity, mean, Laura Smart No. 2 / intensity, mean, Laura Smart No. 3 / intensity, mean, all readers / intensity, single, Laura Smart No. 1 / intensity, single, Laura Smart No. 2 / intensity, single, Laura Smart No. 3: 380 nm
Description: Using a modified reflectance photometer, hereinafter also referred to as reader (Laura Smart (LS), ERBA Lachema), native urine samples were investigated using excitation light having either a wavelength of 380 nm or a wavelength of 470 nm. Herein, the samples under investigation contained the direct factor Xa inhibitor rivaroxaban or the direct thrombin inhibitor dabigatran. For each anticoagulant, samples with different concentrations were provided.
Test strips were used on which both the blood clotting factor (factor Xa or thrombin) and the respective chromogenic substrate conjugated to a detectable substance were immobilized, i.e. N-benzoyl-L-isoleucyl-L-glutamyl-L-glycyl-L-arginine-para-nitroaniline (SEQ ID NO:1) together with factor Xa, and N-(para-tosyl)-glycyl-L-prolyl-L-arginine-para-nitroanilide acetate together with thrombin. After dipping the test strip into the urine sample to be investigated for 2 to 3 seconds, incubation was allowed for 10 min. Then, the test strip was inserted into the reader. In total, three different readers (“Laura No. 1”, “Laura No. 2”, and “Laura No. 3”) were used in order to check for any device-specific issues.
In order to suppress fluorescence light which might originate from the released detestable substance (para-nitroaniline), a UV band-pass filter was used made of UG11 glass (Schott AG).
For each single measurement, an intensity value was put out by the respective reader, given in reflectance units (% REM). Each of the readers was able to split up the measured intensity into 1000 increments.
Generally, the higher the concentration of the anticoagulant in the sample, the less detectable substance is released from the chromogenic substrate by the corresponding blood dotting factor. Accordingly, in case of a high concentration of the anticoagulant, the absorption by the sample is low while the reflectance by the sample is high. In order to reliably evaluate the presence or absence of the anticoagulant in the sample, as a general rule, a low concentration of the anticoagulant in the sample should result in a % REM value as low as possible, while a high concentration of the anticoagulant in the sample should result in a % REM value as high as possible. In other words, the difference in reflectance units for the minimum and maximum concentration of the anticoagulant should be as large as possible.

[1] = rivaroxaban 100 ng/mL in native urine
[2] = rivaroxaban 200 ng/mL in native urine
[3] = rivaroxaban 400 ng/mL in native urine
[4] = rivaroxaban 1500 ng/mL in native urine

Sequence of factor Xa (P00742 235-488 limits assumed): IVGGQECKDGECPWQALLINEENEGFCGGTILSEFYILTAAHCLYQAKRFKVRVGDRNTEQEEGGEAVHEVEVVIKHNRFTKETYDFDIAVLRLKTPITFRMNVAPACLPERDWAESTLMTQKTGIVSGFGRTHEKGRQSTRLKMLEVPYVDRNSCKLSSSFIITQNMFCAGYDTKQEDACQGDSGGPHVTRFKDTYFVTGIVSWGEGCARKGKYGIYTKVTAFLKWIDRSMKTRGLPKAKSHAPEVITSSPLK
Sequence of factor Xa (P00742 41-179 partner limits assumed): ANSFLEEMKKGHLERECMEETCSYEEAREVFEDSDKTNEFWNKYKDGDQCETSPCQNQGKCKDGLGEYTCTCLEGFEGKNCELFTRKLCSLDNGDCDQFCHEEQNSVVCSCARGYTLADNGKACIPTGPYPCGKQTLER

Structure (SMILES): O=C(NC[C@H]1CN(c2ccc(N3CCOCC3=O)cc2)C(=O)O1)c1ccc(Cl)s1 [rivaroxaban]
- difference in reflectance units for the minimum and maximum concentration (excitation light 380 nm): about 400 % REM
- difference in reflectance units for the minimum and maximum concentration (excitation light 470 nm): about 200 % REM
- change of the measured intensity with concentration (dark urine samples, excitation light 380 nm): possible to observe a change of the measured intensity with the concentration
- intensity, mean, Laura Smart No. 1 [1]: 181 % REM
- intensity, mean, Laura Smart No. 2 [1]: 194 % REM
- intensity, mean, Laura Smart No. 3 [1]: 199 % REM
- intensity, mean, all readers [1]: 191 % REM
- intensity, single, Laura Smart No. 1 [1]: 192 % REM and 159 % REM and 193 % REM
- intensity, single, Laura Smart No. 2 [1]: 194 % REM and 191 % REM and 196 % REM
- intensity, single, Laura Smart No. 3 [1]: 202 % REM and 196 % REM and 199 % REM
- intensity, mean, Laura Smart No. 1 [2]: 276 % REM
- intensity, mean, Laura Smart No. 2 [2]: 266 % REM
- intensity, mean, Laura Smart No. 3 [2]: 315 % REM
- intensity, mean, all readers [2]: 286 % REM
- intensity, single, Laura Smart No. 1 [2]: 254 % REM and 336 % REM and 238 % REM
- intensity, single, Laura Smart No. 2 [2]: 279 % REM and 265 % REM and 253 % REM
- intensity, single, Laura Smart No. 3 [2]: 304 % REM and 342 % REM and 299 % REM
- intensity, mean, Laura Smart No. 1 [3]: 387 % REM
- intensity, mean, Laura Smart No. 2 [3]: 425 % REM
- intensity, mean, Laura Smart No. 3 [3]: 387 % REM
- intensity, mean, all readers [3]: 400 % REM
- intensity, single, Laura Smart No. 1 [3]: 346 % REM and 406 % REM and 409 % REM
- intensity, single, Laura Smart No. 2 [3]: 431 % REM and 413 % REM
- intensity, single, Laura Smart No. 3 [3]: 423 % REM and 411 % REM and 326 % REM
- intensity, mean, Laura Smart No. 1 [4]: 542 % REM
- intensity, mean, Laura Smart No. 2 [4]: 518 % REM
- intensity, mean, Laura Smart No. 3 [4]: 496 % REM
- intensity, mean, all readers [4]: 519 % REM
- intensity, single, Laura Smart No. 1 [4]: 537 % REM and 528 % REM and 560 % REM
- intensity, single, Laura Smart No. 2 [4]: 588 % REM and 468 % REM and 499 % REM
- intensity, single, Laura Smart No. 3 [4]: 501 % REM and 510 % REM and 476 % REM
